{"source": "patent US20250353835A1", "about": "“N-TETRAZOLYL ARYL UREA-BASED DERIVATIVES, PREPARATION METHOD THEREFOR, AND USE THEREOF” (Hangzhou Yirui Pharmaceutical Technology Co., Ltd, priority 2022, published 2025)", "key": {"[1]": {"molecular_target": "T1, human B1R (Homo sapiens, UniProt P46663)", "T1 construct": "host or cells: HEK293", "T1 sequence (P46663 1-353)": "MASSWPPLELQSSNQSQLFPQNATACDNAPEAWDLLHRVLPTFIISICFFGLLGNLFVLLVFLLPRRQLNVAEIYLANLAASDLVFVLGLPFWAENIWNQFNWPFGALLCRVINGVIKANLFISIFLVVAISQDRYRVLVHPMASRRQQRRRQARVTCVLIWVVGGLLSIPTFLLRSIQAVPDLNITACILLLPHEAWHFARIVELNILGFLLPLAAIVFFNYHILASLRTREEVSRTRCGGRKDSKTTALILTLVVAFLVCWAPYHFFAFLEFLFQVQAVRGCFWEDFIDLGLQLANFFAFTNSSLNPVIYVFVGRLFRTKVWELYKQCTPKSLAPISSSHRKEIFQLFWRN", "experiment": "FLIPR calcium ion flux assay, inhibitory activity against human B1R", "type": "cell-based", "settings": "HEK293 cells stably expressing human B1R; agonist [Lys-des-Arg9]-Bradykinin 4.6 nM (EC80); FLIPR method", "summary_of_the_method": "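HEK293 cells stably expressing human B1R, loaded with Fluo-4 Direct plus probenecid; compounds 9-point 1:5 series from 30 μM, duplicate, preincubated 10 min. Stimulation with [Lys-des-Arg9]-bradykinin at 4.6 nM final (EC80); peak fluorescence at 538 nm gave IC50.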"}, "[2]": {"experiment": "Intraocular and retinal drug concentration in rats after eye drops (HPLC)", "type": "in vivo", "settings": "both sexes, SD, rat, topical, 10 μL of 2% solution per eye, twice a day for 7 days, 2% eye drops twice a day; for concentration at 1 h after the second eye drop on Day 7: 1 h after administration", "source_text": "2.1 Experimental aminals: SPF grade male SD rats, weighed 180-200 g, were used and adaptively fed for one week.\n2.2 Drugs and reagents: Compound 71 and Compound 8; sodium chloride injection (Guangxi Yuyuan Pharmaceutical Co., Ltd.); sterile filter having 0.22 μm pore size (Millex).\n2.3 Experimental animal grouping: the animals were randomly divided into 3 groups (6 rats per group) of a negative control group (normal saline), a Compound 71 group and a Compound 8 group.\n2.4 Administration method and sampling: 2% Compound (10 μl) dissolved in normal saline (after filtration) was dropped into the surface of each rat's eye with a pipette for 10 s. The eye drop was applied twice a day for a total of 7 days. Samples were taken at 1 and 16 hours after the second administration on Day 7 of administration to determine the ocular distribution concentration of the drug.\n(§1) The first batch of samples: 1 hour after the second eye drop on Day 7: 3 rats (2 males and 1 female) were taken from each group. The bulbus oculi were removed, and were thoroughly rinsed for 3 times with normal saline using a pipette. The washing solution was quickly dried with a qualitative filter paper. The cornea, vitreous body and retina were separated under a stereomicroscope, and frozen at −80° C. for subsequent measurement.\nas §1, with “second” for “first”, “On the morning of Day 8, i.e., at 16 hours” for “1 hour”, “7: the remaining” for “7:”, “(1 male” for “(2 males”, “2 females)” for “1 female)”, “detection.” for “measurement.”\n2.7.3 Results of HPLC measurement of drug content in eye tissue: Under the selected chromatographic conditions for analysis, drug impurities were well separated. The chromatograms for a sample of standard solution, a sample of blank homogenate, a sample of blank homogenate added with Compound 71 or Compound 8, and a sample of retinal homogenate samples were compared. […] Under the selected HPLC measurement conditions, the average recovery rates for two compounds under test were both above 90%. […] The precision can meet the measurement standard. As shown by the accuracy results, the accuracy for all of the high, medium and low concentration retinal spiked quality control samples (QC) within the drug curve range was higher than 95%."}, "[3]": {"settings": "cornea, read-out: Content of test compound in Cornea"}, "[4]": {"settings": "cornea, 16 h after administration, read-out: Content of test compound in Cornea"}, "[5]": {"settings": "retina, read-out: Content of test compound in Retina"}, "[6]": {"settings": "retina, 16 h after administration, read-out: Content of test compound in Retina"}, "[7]": {"settings": "vitreous body, read-out: Content of test compound in Vitreous body"}, "[8]": {"settings": "vitreous body, 16 hours after administration, read-out: Content of test compound in Vitreous body"}}, "note": "Like-named read-outs stand apart in the source and are kept apart here."}
{"compound": "CCOc1ccc(-c2c(F)cc(NC(=O)N3CCC(C(C)(C)C)CC3)cc2-c2nn[nH]n2)cn1", "note": "[Compound 8, 4-(tert-butyl)-N-(4-(6-ethoxypyrid-3-yl)-3-fluoro-5-(2H-tetrazol-5-yl)phenyl)piperidine-1-carboxamide]", "values": [{"measurement": "IC50", "setting": "[1]", "value": 14.9, "unit": "nM"}, {"measurement": "concentration at 1 h after the second eye drop on Day 7", "setting": "[2]; [3]", "value": "101000 ± 28200", "unit": "ng/g"}, {"measurement": "concentration at 16 h after the second eye drop on Day 7", "setting": "[2]; [4]", "value": "40700 ± 18800", "unit": "ng/g"}, {"measurement": "concentration at 1 h after the second eye drop on Day 7", "setting": "[2]; [5]", "value": "55000 ± 6910", "unit": "ng/g"}, {"measurement": "concentration at 16 h after the second eye drop on Day 7", "setting": "[2]; [6]", "value": "15800 ± 8410", "unit": "ng/g"}, {"measurement": "concentration at 1 h after the second eye drop on Day 7", "setting": "[2]; [7]", "value": "18200 ± 4650", "unit": "ng/g"}, {"measurement": "concentration at 16 h after the second eye drop on Day 7", "setting": "[2]; [8]", "value": "10100 ± 2670", "unit": "ng/g"}]}
{"compound": "CCOc1ccc(-c2ccc(NC(=O)N[C@H]3CC[C@H](C)CC3)cc2-c2nn[nH]n2)cn1", "note": "[Compound 71, 1-(4-(6-ethoxypyrid-3-yl)-3-(2H-tetrazol-5-yl)phenyl)-3-((trans)-4-methylcyclohexyl)urea]", "values": [{"measurement": "IC50", "setting": "[1]", "value": 66.1, "unit": "nM"}, {"measurement": "concentration at 1 h after the second eye drop on Day 7", "setting": "[2]; [3]", "value": "93100 ± 16900", "unit": "ng/g"}, {"measurement": "concentration at 16 h after the second eye drop on Day 7", "setting": "[2]; [4]", "value": "43500 ± 6590", "unit": "ng/g"}, {"measurement": "concentration at 1 h after the second eye drop on Day 7", "setting": "[2]; [5]", "value": "64800 ± 18300", "unit": "ng/g"}, {"measurement": "concentration at 16 h after the second eye drop on Day 7", "setting": "[2]; [6]", "value": "6070 ± 3060", "unit": "ng/g"}, {"measurement": "concentration at 1 h after the second eye drop on Day 7", "setting": "[2]; [7]", "value": "24200 ± 7070", "unit": "ng/g"}, {"measurement": "concentration at 16 h after the second eye drop on Day 7", "setting": "[2]; [8]", "value": "12700 ± 3490", "unit": "ng/g"}]}
